Measurements taken from ChEMBL document CHEMBL4402543, “Bioisosteric Development of Multitarget Nonsteroidal Anti-Inflammatory Drug-Carbonic Anhydrases Inhibitor Hybrids for the Management of Rheumatoid Arthritis” (J Med Chem, 2020).
The source made the active and inactive calls.

Tests used:
[1] = Half life in human plasma by LC-MS/MS analysis; format: ADME, cell-free
[2] = Half life in Sprague-Dawley rat plasma by LC-MS/MS analysis; format: ADME, cell-free
[3] = target: T1, Prostaglandin G/H synthase 2 (Mus musculus) (UniProt Q05769); experiment: Inhibition of COX2 in mouse RAW264.7 cells assessed as reduction in LPS-induced inflammation by measuring reduction in PGE2 level at 100 uM treated 1 hr after LPS stimulation and measured after 18 hrs by ELISA relative to control; format: cell-based
T1 sequence (whole entry): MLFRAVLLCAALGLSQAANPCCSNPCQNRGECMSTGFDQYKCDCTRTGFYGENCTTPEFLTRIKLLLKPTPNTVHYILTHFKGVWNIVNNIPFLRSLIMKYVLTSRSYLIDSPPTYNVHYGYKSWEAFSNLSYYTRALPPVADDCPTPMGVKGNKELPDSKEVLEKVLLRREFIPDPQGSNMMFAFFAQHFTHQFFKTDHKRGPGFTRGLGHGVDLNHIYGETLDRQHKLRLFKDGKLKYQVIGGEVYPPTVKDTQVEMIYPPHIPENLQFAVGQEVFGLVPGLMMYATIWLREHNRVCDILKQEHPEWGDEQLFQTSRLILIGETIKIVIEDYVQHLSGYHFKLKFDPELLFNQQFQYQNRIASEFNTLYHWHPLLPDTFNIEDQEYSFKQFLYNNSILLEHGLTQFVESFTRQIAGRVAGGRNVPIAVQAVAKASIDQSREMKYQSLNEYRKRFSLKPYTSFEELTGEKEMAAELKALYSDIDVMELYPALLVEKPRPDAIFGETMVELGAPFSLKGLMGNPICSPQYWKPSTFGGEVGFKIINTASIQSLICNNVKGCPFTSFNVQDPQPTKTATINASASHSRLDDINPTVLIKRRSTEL

[4] = target: COX1 (Prostaglandin G/H synthase 1) (Homo sapiens, UniProt P23219); experiment: Inhibition of COX1 in human platelet rich plasma in assessed as inhibition of ADP-induced platelet aggregation at 10 uM incubated for 5 mins by turbidimetry based Born's method relative to control
[5] = tested on: Rattus norvegicus; experiment: Antihyperalgesic activity in Sprague-Dawley rat model of Complete freund's adjuvant-induced arthritis assessed as increase in pain threshold of ipsilateral paw at 10 mg/kg, po starting from day 14 after CFA injection and measured at 0 to 60 mins by paw pressure test; format: functional, organism-based
[6] = target: T1, Prostaglandin G/H synthase 2 (Mus musculus); experiment: Inhibition of COX2 in mouse RAW264.7 cells assessed as reduction in LPS-induced inflammation by measuring reduction in PGE2 level at 1 uM treated 1 hr after LPS stimulation and measured after 18 hrs by ELISA relative to control; format: cell-based
[7] = Stability in PBS; format: physicochemical; conditions: buffer
[8] = target: Carbonic anhydrase 12 (Homo sapiens) (UniProt O43570)
Description: Inhibition of human CA12 pre-incubated for 6 hrs by stopped- flow CO2 hydrase assay method based Cheng-Prusoff equation analysis

[9] = target: Carbonic anhydrase 7 (Homo sapiens) (UniProt P43166)
Description: Inhibition of human CA7 pre-incubated for 6 hrs by stopped- flow CO2 hydrase assay method based Cheng-Prusoff equation analysis

[10] = target: Carbonic anhydrase 2 (Homo sapiens) (UniProt P00918)
Description: Inhibition of human CA2 pre-incubated for 6 hrs by stopped- flow CO2 hydrase assay method based Cheng-Prusoff equation analysis

[11] = target: Carbonic anhydrase 1 (Homo sapiens) (UniProt P00915)
Description: Inhibition of human CA1 pre-incubated for 6 hrs by stopped- flow CO2 hydrase assay method based Cheng-Prusoff equation analysis

[12] = target: Carbonic anhydrase 9 (Homo sapiens) (UniProt Q16790)
Description: Inhibition of human CA9 pre-incubated for 6 hrs by stopped- flow CO2 hydrase assay method based Cheng-Prusoff equation analysis

[13] = target: Carbonic anhydrase 4 (Homo sapiens) (UniProt P22748)
Description: Inhibition of human CA4 pre-incubated for 6 hrs by stopped- flow CO2 hydrase assay method based Cheng-Prusoff equation analysis

[14] = tested on: Rattus norvegicus; experiment: Antihyperalgesic activity in Sprague-Dawley rat model of Complete freund's adjuvant-induced arthritis assessed as increase in pain threshold of ipsilateral paw at 100 mg/kg, po starting from day 14 after CFA injection and measured at 15 mins by paw pressure test; format: functional, organism-based
[15] = tested on: Rattus norvegicus; experiment: Antihyperalgesic activity in Sprague-Dawley rat model of Complete freund's adjuvant-induced arthritis assessed as increase in pain threshold of ipsilateral paw at 30 mg/kg, po starting from day 14 after CFA injection and measured at 15 to 30 mins by paw pressure test; format: functional, organism-based
[16] = tested on: Rattus norvegicus; experiment: (§1) Antihyperalgesic activity in Sprague-Dawley rat model of Complete freund's adjuvant-induced arthritis assessed as reduction in difference between weight burdened on contralateral and ipsilateral paw at 30 mg/kg, po starting from day 14 after CFA injection and measured at 15 mins incapacitance test; format: functional, organism-based
[17] = tested on: Rattus norvegicus; experiment: as §1, with “15 to 30” for “15”; format: functional, organism-based
[18] = tested on: Rattus norvegicus; experiment: Antihyperalgesic activity in Sprague-Dawley rat model of Complete freund's adjuvant-induced arthritis assessed as reduction in difference between weight burdened on contralateral and ipsilateral paw at 30 mg/kg, po starting from day 14 after CFA injection and measured at 45 mins incapacitance test; format: functional, organism-based
[19] = tested on: Rattus norvegicus; experiment: Antihyperalgesic activity in Sprague-Dawley rat model of Complete freund's adjuvant-induced arthritis assessed as reduction in difference between weight burdened on contralateral and ipsilateral paw at 30 mg/kg, po starting from day 14 after CFA injection and measured at 30 mins incapacitance test; format: functional, organism-based

Sequence of COX1 (Prostaglandin G/H synthase 1) (P23219 whole entry): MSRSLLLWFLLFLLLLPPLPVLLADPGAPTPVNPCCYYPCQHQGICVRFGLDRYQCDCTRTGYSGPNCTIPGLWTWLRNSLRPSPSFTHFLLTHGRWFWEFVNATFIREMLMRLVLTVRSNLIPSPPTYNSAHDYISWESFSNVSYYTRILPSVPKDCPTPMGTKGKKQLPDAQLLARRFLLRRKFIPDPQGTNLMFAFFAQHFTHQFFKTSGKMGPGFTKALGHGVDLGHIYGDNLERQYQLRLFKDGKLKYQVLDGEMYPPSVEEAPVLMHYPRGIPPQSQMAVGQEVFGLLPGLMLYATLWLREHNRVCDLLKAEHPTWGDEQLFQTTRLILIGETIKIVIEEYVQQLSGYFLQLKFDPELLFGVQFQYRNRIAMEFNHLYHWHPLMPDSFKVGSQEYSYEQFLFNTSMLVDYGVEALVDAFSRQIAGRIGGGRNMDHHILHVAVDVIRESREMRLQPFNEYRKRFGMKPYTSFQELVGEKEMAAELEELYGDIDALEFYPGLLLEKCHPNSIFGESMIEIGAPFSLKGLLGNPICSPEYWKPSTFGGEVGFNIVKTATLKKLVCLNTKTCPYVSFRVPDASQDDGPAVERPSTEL
Sequence of Carbonic anhydrase 1 (Homo sapiens) (P00915 2-261 limits assumed): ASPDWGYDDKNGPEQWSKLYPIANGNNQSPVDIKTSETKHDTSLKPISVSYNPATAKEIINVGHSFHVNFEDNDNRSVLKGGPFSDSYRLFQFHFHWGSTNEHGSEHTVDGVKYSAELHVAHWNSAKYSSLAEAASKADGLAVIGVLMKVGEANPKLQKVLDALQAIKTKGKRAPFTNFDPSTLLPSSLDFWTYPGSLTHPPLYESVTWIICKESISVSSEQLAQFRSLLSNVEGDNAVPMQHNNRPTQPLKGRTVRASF
Sequence of Carbonic anhydrase 12 (Homo sapiens) (O43570 whole entry): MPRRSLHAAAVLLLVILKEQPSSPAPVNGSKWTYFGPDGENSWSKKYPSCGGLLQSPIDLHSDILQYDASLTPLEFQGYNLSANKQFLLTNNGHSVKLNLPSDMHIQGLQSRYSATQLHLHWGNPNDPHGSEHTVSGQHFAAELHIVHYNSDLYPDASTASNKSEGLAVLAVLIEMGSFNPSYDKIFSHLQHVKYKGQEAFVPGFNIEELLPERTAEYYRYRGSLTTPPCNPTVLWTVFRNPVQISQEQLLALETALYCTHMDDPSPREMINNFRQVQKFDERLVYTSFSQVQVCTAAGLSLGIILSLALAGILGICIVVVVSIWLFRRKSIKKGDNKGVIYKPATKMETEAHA
Sequence of Carbonic anhydrase 7 (Homo sapiens) (P43166 whole entry): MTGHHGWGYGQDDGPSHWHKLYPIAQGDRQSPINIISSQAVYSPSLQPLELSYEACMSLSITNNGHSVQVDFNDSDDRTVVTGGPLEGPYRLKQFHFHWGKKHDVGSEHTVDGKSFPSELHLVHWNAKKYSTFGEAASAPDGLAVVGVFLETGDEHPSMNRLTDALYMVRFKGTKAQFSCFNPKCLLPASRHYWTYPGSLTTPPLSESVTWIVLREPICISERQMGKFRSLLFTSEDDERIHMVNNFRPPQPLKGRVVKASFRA
Sequence of Carbonic anhydrase 4 (Homo sapiens) (P22748 whole entry): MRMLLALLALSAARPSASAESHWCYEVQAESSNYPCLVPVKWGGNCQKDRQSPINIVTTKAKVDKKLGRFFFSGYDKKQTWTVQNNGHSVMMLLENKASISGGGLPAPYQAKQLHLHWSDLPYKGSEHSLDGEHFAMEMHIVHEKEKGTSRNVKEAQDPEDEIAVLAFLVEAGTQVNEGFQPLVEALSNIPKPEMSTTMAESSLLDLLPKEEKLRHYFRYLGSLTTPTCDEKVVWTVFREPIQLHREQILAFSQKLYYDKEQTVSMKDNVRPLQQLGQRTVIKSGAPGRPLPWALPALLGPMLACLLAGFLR

Structure (SMILES)	half-life [1] [h]	half-life [2] [h]	inhibition at 5 min, 10 µM [4] [%]	Stability [7]	also measured
CC(C(=O)NCCOc1ccc2ccc(=O)oc2c1)c1ccc(-c2ccccc2)c(F)c1 (stereo not given)	> 4	> 4			
COc1ccc2cc([C@H](C)C(=O)NCCOc3ccc4ccc(=O)oc4c3)ccc2c1	> 4	> 4			
O=C(Cc1ccccc1Nc1c(Cl)cccc1Cl)NCCOc1ccc2oc(=O)ccc2c1	> 4	> 4	5 to 30		inhibition [3]: 75%
CC1=C(CC(=O)NCCOc2ccc3ccc(=O)oc3c2)c2cc(F)ccc2/C1=C\c1ccc([S+](C)[O-])cc1 (stereo not given)	> 4	> 4			
CC(C(=O)NCCOc1ccc2ccc(=O)oc2c1)c1cccc(C(=O)c2ccccc2)c1 (stereo not given)	> 4	> 4			
CC(C(=O)NCCOc1ccc2oc(=O)ccc2c1)c1cccc(C(=O)c2ccccc2)c1 (stereo not given)	> 4	> 4			
CC(C(=O)NCCOc1ccc2oc(=O)ccc2c1)c1ccc(-c2ccccc2)c(F)c1 (stereo not given)	> 4	> 4			
CC1=C(CC(=O)NCCOc2ccc3oc(=O)ccc3c2)c2cc(F)ccc2/C1=C\c1ccc([S+](C)[O-])cc1 (stereo not given)	> 4	> 4			
CC(C)Cc1ccc(C(C)C(=O)NCCOc2ccc3oc(=O)ccc3c2)cc1 (stereo not given)	> 4	> 4	5 to 30		
O=C(Cc1ccccc1Nc1c(Cl)cccc1Cl)NCCOc1ccc2ccc(=O)oc2c1	> 4	> 4	> 15		
CC(C)Cc1ccc(C(C)C(=O)NCCOc2ccc3ccc(=O)oc3c2)cc1 (stereo not given)	> 4	> 4	5 to 30		Activity [5]: Active; inhibition [3]: Active; inhibition [6]: Active
CC1=C(CC(=O)OCCOc2ccc3ccc(=O)oc3c2)c2cc(F)ccc2/C1=C\c1ccc([S+](C)[O-])cc1 (stereo not given)	> 4	0.277		Stable	
O=C(Cc1ccccc1Nc1c(Cl)cccc1Cl)OCCOc1ccc2ccc(=O)oc2c1	0.3	< 0.0167		Stable	
CC(C)Cc1ccc(C(C)C(=O)OCCOc2ccc3ccc(=O)oc3c2)cc1 (racemic)	> 4	0.0533	5 to 30	Stable	Ki [8]: 5.3 nM; Ki [9]: > 10000 nM; Ki [10]: > 10000 nM; Ki [11]: > 10000 nM; Ki [12]: 3.9 nM; Ki [13]: 6.5 nM
CC(C)Cc1ccc(C(C)C(=O)OCCOc2ccc3oc(=O)ccc3c2)cc1 (racemic)	> 4	0.0583	5 to 30	Stable	Ki [8]: 459 nM; Ki [9]: > 10000 nM; Ki [10]: > 10000 nM; Ki [11]: > 10000 nM; Ki [12]: 25.3 nM; Ki [13]: 3.6 nM
CC(C(=O)OCCOc1ccc2ccc(=O)oc2c1)c1ccc(-c2ccccc2)c(F)c1 (racemic)	> 4	0.04		Stable	
CC(C(=O)OCCOc1ccc2oc(=O)ccc2c1)c1ccc(-c2ccccc2)c(F)c1 (racemic)	> 4	0.0217		Stable	
O=C(O)Cc1ccccc1Nc1c(Cl)cccc1Cl [DICLOFENAC]			15		
CC(C)Cc1ccc(C(C)C(=O)O)cc1 (stereo not given) [IBUPROFEN]			> 60		Activity [14]: Active
CC(C(=O)O)c1cccc(C(=O)c2ccccc2)c1 (stereo not given) [KETOPROFEN]			25		Activity [15]: Active; Activity [16]: Active; Activity [17]: Active; Activity [18]: inactive; Activity [19]: inactive

Now from value to compound, other results behind:

half-life [1] [h]	half-life [2] [h]	inhibition at 5 min, 10 µM [4] [%]	Stability [7]	Structure (SMILES)	also measured
> 4	> 4			COc1ccc2c(c1)c(CC(=O)NCCOc1ccc3oc(=O)ccc3c1)c(C)n2C(=O)c1ccc(Cl)cc1	
> 4	> 4			COc1ccc2c(c1)c(CC(=O)NCCOc1ccc3ccc(=O)oc3c1)c(C)n2C(=O)c1ccc(Cl)cc1	
> 4	> 4			COc1ccc2cc([C@H](C)C(=O)NCCOc3ccc4oc(=O)ccc4c3)ccc2c1	
> 4	< 0.0167		Stable	COc1ccc2cc([C@H](C)C(=O)OCCOc3ccc4ccc(=O)oc4c3)ccc2c1	
0.533	< 0.0167		Stable	O=C(Cc1ccccc1Nc1c(Cl)cccc1Cl)OCCOc1ccc2oc(=O)ccc2c1	
> 4	0.0333		Stable	COc1ccc2c(c1)c(CC(=O)OCCOc1ccc3ccc(=O)oc3c1)c(C)n2C(=O)c1ccc(Cl)cc1	
> 4	0.0467		Stable	COc1ccc2c(c1)c(CC(=O)OCCOc1ccc3oc(=O)ccc3c1)c(C)n2C(=O)c1ccc(Cl)cc1	
> 4	0.0183		Stable	COc1ccc2cc([C@H](C)C(=O)OCCOc3ccc4oc(=O)ccc4c3)ccc2c1	
> 4	0.0917		Stable	CC1=C(CC(=O)OCCOc2ccc3oc(=O)ccc3c2)c2cc(F)ccc2/C1=C\c1ccc([S+](C)[O-])cc1 (stereo not given)	
